# Assay results reported in US20250353855A1, “HETEROCYCLIC AND HETEROARYL COMPOUNDS FOR TREATING HUNTINGTON'S DISEASE” (PTC THERAPEUTICS, INC., priority 2022, published 2025).
# Test system: Endogenous Huntingtin Protein
# Test: Endogenous Huntingtin Protein Assay (ELISA-based MSD electrochemiluminescence)
# Type: cell-based
# Details: MSD plates coated with MW1 (expanded polyglutamine) or MAB2166 capture antibody; lysates
# In short: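 Electrochemiluminescence sandwich ELISA for endogenous huntingtin: capture with MW1 (expanded polyglutamine) or MAB2166 antibody at 1 μg/mL, samples incubated overnight at 4° C. Detection with rabbit monoclonal #5656S then goat anti-rabbit SULFO-TAG antibody (each 0.25 μg/mL, 1 h room temperature), read on MSD imager.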
row,SMILES,IC50
1,"CSc1nc2cc(O)c(-c3cc4c(nn3)N([C@H]3CC(C)(C)NC(C)(C)[C@H]3F)CC4)cc2s1 [Cpd 98, 6-{7-[(3S,4S)-3-fluoro-2,2,6,6-tetramethylpiperidin-4-yl]-6,7-dihydro-5H-pyrrolo[2,3-c]pyridazin-3-yl}-2-(methylsulfanyl)-1,3-benzothiazol-5-ol]",< 0.1 µM

# Same assay, conditions: MSD plates coated with MW1 (expanded polyglutamine) or MAB2166 capture antibody; lysates; read-out: IC50
row,IC50,SMILES
1,< 0.1 µM,"COc1nc2cc(O)c(-c3cc4ccn([C@H]5CC(C)(C)NC(C)(C)[C@H]5F)c4nn3)cc2s1 [Cpd 96, 6-{7-[(3S,4S)-3-fluoro-2,2,6,6-tetramethylpiperidin-4-yl]-7H-pyrrolo[2,3-c]pyridazin-3-yl}-2-methoxy-1,3-benzothiazol-5-ol]"
2,< 0.1 µM,"COc1nc2cc(O)c(-c3cc4c(nn3)N([C@H]3CC(C)(C)NC(C)(C)[C@H]3F)CC4)cc2s1 [Cpd 97, 6-{7-[(3S,4S)-3-fluoro-2,2,6,6-tetramethylpiperidin-4-yl]-6,7-dihydro-5H-pyrrolo[2,3-c]pyridazin-3-yl}-2-methoxy-1,3-benzothiazol-5-ol]"
3,< 0.1 µM,"CSc1nc2cc(O)c(-c3cc4ccn([C@H]5CC(C)(C)NC(C)(C)[C@H]5F)c4nn3)cc2s1 [Cpd 99, 6-{7-[(3S,4S)-3-fluoro-2,2,6,6-tetramethylpiperidin-4-yl]-7H-pyrrolo[2,3-c]pyridazin-3-yl}-2-(methylsulfanyl)-1,3-benzothiazol-5-ol]"
4,< 0.1 µM,"Cn1cc2cc(-c3cc4ccn([C@H]5CC(C)(C)NC(C)(C)[C@H]5F)c4nn3)c(O)c(F)c2n1 [Cpd 100, 7-fluoro-5-{7-[(3S,4S)-3-fluoro-2,2,6,6-tetramethylpiperidin-4-yl]-7H-pyrrolo[2,3-c]pyridazin-3-yl}-2-methyl-2H-indazol-6-ol]"
5,< 0.1 µM,"Cn1cc2cc(-c3cc4c(nn3)N([C@H]3CC(C)(C)NC(C)(C)[C@H]3F)CC4)c(O)c(F)c2n1 [Cpd 101, 7-fluoro-5-{7-[(3S,4S)-3-fluoro-2,2,6,6-tetramethylpiperidin-4-yl]-6,7-dihydro-5H-pyrrolo[2,3-c]pyridazin-3-yl}-2-methyl-2H-indazol-6-ol]"
6,< 0.1 µM,"Cc1nc2cc(-c3cc4ccn([C@H]5CC(C)(C)NC(C)(C)[C@H]5F)c4nn3)c(O)c(F)c2o1 [Cpd 102, 7-fluoro-5-{7-[(3S,4S)-3-fluoro-2,2,6,6-tetramethylpiperidin-4-yl]-7H-pyrrolo[2,3-c]pyridazin-3-yl}-2-methyl-1,3-benzoxazol-6-ol]"
7,< 0.1 µM,"Cc1nc2cc(-c3cc4c(nn3)N([C@H]3CC(C)(C)NC(C)(C)[C@H]3F)CC4)c(O)c(F)c2o1 [Cpd 103, 7-fluoro-5-{7-[(3S,4S)-3-fluoro-2,2,6,6-tetramethylpiperidin-4-yl]-6,7-dihydro-5H-pyrrolo[2,3-c]pyridazin-3-yl}-2-methyl-1,3-benzoxazol-6-ol]"
